Source: patent US20020082200A1, “Use of inhibitors of human S-CD23” (SmithKline Beecham p.1.c., priority 1994, published 2002)

Tests used:
Type in all cases: cell-based
[1] = system: Human tonsillar B lymphocytes; experiment: Inhibition of formation of human IgE in vitro, tonsillar B lymphocytes with IL4 and anti-CD40 (Procedure 4); settings: 11 days, ELISA, stimulated control 11.7, TCM 1.9
Description: (§1) The ability of test compounds to inhibit the formation of human IgE in vitro was investigated using the following procedure:
Human tonsillar B lymphocytes were suspended in RPMI 1640 medium containing 10% foetal calf serum, 2 mM glutamine, 50 micro M 2-mercaptoethanol and 50 micro g/ml gentamycin (TCM) at a concentration of 1.25×10^6 cells/ml. 800 micro l of the cell suspension were aliquoted into the wells of a 48 well plate. 100 micro l of TCM or IL4 at 100 ng/ml and antibody to CD40 at 10 microg/ml was added in quadriplicate to the appropriate wells, followed by 100 micro l of TCM or 10× the final concentration of compound under investigation. Test compounds are dissolved in DMSO at a stock dilution of 10^−2M diluted 1 in 100 in TCM and then as above. The plates are incubated for 11 days at 37° C. in a 95% air/5% CO2 humidified incubator. At the end of the culture period the supernatents were removed from the wells and centrifuged (200× g for 10 minutes) to remove any non-adherent cells. There was no toxicity as assessed by trypan dye exclusion. The IgE concentration in the supernatants was measured by ELISA.

soluble CD23 = experiment: Inhibition of release of soluble CD23 from CD23-transfected CHO cells (Procedure 1); settings: CHO cells transfected with alpha form of CD23, 6 hours, ELISA of supernatant; read-out: IC50 (concentration which inhibits the release of soluble CD23 by 50% relative to the control culture)
Description: The ability of test compounds to inhibit the release of soluble CD23 was investigated by use of the following procedure.
Adherent Chinese Hamster Ovary cells which had been transfected with the alpha form of CD23 were grown in microtitre plates. Cells were grown to confluence in α-MEM medium with 10% foetal calf serum, 2 mM glutamine containing 800 micro g/ml G418. Medium was removed and the cells washed with sterile phosphate buffered saline. Test compounds were dissolved in dimethyl sulphoxide at a stock concentration of 20 mM, then diluted 1 in 200 with α-MEM containing 800 micro g/ml G418 (no foetal calf serum). […] of the diluted compounds were added to the adherent cells in triplicate wells. Appropriate control cultures were set up in triplicate. The plates were incubated for 6 hours at 37° C., 95% air/5% CO2 in a humidified incubator, then centrifuged at 200× g for 3 minutes. A specific ELISA for CD23, obtained from The Binding Site Limited, Institute of Research and Development, Birmingham England, was used to measure CD23 levels in the culture supernatants.

[2] = system: Human peripheral blood mononuclear cells; experiment: Inhibition of formation of human IgE in vitro, peripheral blood mononuclear cells with IL4 (Procedure 3); settings: 12 days, ELISA, IL4 alone 72.4, TCM 0.25
Description: as §1
Human peripheral blood mononuclear cells were separated by centrifugation over Ficoll-Paque (Pharmacia). The cells were suspended in RPMI 1640 medium containing 10% foetal calf serum, 2 mM glutamine, 50 microM 2-mercaptoethanol and 50 micro g/ml gentamycin (TCM) at a concentration of 1.25×10^6 cells/ml. 800 micro l of the cell suspension were aliquoted into the wells of a 48 well plate. […] Test compounds are dissolved in dimethylsulphoxide (DMSO) at a stock dilution of
10^−2M diluted 1 in 100 in TCM and then as above. The plates are incubated for 12 days at 37° C. in a 95% air/5% CO2 humidified incubator. At the end of the culture period the supernatants were removed with the wells and centrifuged (200× g for 10 minutes) to remove any non-adherent cells. There was no toxicity as assessed by trypan blue dye exclusion. The IgE concentration in the supernatants was measured by ELISA.

SMILES | IC50 (soluble CD23) | also measured
CNC(=O)[C@@H](Cc1ccccc1)NC(=O)[C@H](CC(C)C)[C@H](CSc1cccs1)C(=O)N[O-].[Na+] [P1, [4-(N-Hydroxyamino)-2-(R)-isobutyl-3-(S)-(2-thiophenethiomethyl)succinyl]-(S)-phenylalanine-N-methylamide, Sodium Salt] | 0.05 µM | IgE ng/ml (mean +/− sem) ([1]; IL4 (10 ng/ml) and anti CD40 (1 micro g/ml) with compound at 10^−5 M): 2.9 ± 0.2 ng/mL; IgE ng/ml (mean +/− sem) ([1]; IL4 (10 ng/ml) and anti CD40 (1 micro g/ml) with compound at 10^−6 M): 4.3 ± 0.6 ng/mL; IgE ng/ml (mean +/− sem) ([1]; IL4 (10 ng/ml) and anti CD40 (1 micro g/ml) with compound at 10^−7 M): 6.2 ± 0.5 ng/mL; IgE ng/ml (mean +/− sem) ([2]; IL4 (5 ng/ml) with compound at 10^−5 M): 3.2 ± 1.9 ng/mL; IgE ng/ml (mean +/− sem) ([2]; IL4 (5 ng/ml) with compound at 10^−6 M): 21.3 ± 16.5 ng/mL; IgE ng/ml (mean +/− sem) ([2]; IL4 (5 ng/ml) with compound at 10^−7 M): 68.8 ± 21.8 ng/mL
CNC(=O)[C@@H](Cc1ccc(OC)cc1)NC(=O)C(CC(=O)NO)CC(C)C (stereo partly drawn) [P3, N-[3-(N′-Hydroxycarboxamido)-2-(2-methylpropyl)-propanoyl]-(S)-O-methyl-L-tyrosine-N-methylamide] | 3.35 µM | 
CNC(=O)[C@H](Cc1c[nH]c2ccccc12)NC(=O)[C@H](CC(C)C)[C@@H](S)CC(=O)OC(C)C [P5, Isopropyl 3-(S)-mercapto-6-methyl-4-(S)-[[[1(S)-[(methylamino)carbonyl]-2-(3-indolyl)ethyl]amino]carbonyl]heptanoate] | 60 µM | 
CNC(=O)[C@H](Cc1ccc(OC)cc1)NC(=O)[C@H](CC(C)C)[C@@H](S)CC(N)=O [P6, 3-(S)-Mercapto-N^1-[1-(S)-[(methylamino)carbonyl]-2-(4-methoxyphenyl)ethyl]-2-(S)-(2-methylpropyl)pentanediamide] | 60 µM | 

More lines, in order of falling IC50 (soluble CD23), values ahead:

IC50 (soluble CD23) | SMILES | also measured
30 µM | CC[C@@H](N[C@@H](CC(C)C)C(=O)N[C@@H](Cc1ccc(OC)cc1)C(=O)NC)P(=O)(O)O [P7, N-[N-((S)-1-Phosphonopropyl)-(S)-leucyl]-O-methyl-(S)-tyrosine N-methylamide] | 
2.2 µM | CNC(=O)[C@H](Cc1c[nH]c2ccccc12)NC(=O)[C@H](CC(C)C)[C@@H](S)CC(=O)OC [P4, Methyl 3-(S)-mercapto-6-methyl-4-(S)-[[[1(S)-[(methylamino)carbonyl]-2-(3-indolyl)ethyl]amino]carbonyl]heptanoate] | 
